Like-named read-outs stand apart in the source and are kept apart here. Where a SMILES comes first, the peptide text is derived from it. [ ]: non-standard residue; d: D form. The star is where a group is joined. dPhe(4-Cl) = N[C@H](Cc1ccc(Cl)cc1)C(=O)O; d2Nal = N[C@H](Cc1ccc2ccccc2c1)C(=O)O; Lys(iPr) = CC(C)NCCCC[C@H](N)C(=O)O; d3Pal = N[C@H](Cc1cccnc1)C(=O)O; Nicotinoyl = O=C(c1cccnc1)*
Legend:
human GnRH receptor = target: T1, human GnRH receptor (Homo sapiens, UniProt P30968); assay: Radioligand binding, 125I-GnRH-A displacement, membranes of HEK 293 cells with human GnRH receptor
T1 construct: expressed in transfected cells; host or cells: HEK 293 (hGnRH-R/293, from Dr. Stuart Sealfon)
T1 sequence (P30968 1-328): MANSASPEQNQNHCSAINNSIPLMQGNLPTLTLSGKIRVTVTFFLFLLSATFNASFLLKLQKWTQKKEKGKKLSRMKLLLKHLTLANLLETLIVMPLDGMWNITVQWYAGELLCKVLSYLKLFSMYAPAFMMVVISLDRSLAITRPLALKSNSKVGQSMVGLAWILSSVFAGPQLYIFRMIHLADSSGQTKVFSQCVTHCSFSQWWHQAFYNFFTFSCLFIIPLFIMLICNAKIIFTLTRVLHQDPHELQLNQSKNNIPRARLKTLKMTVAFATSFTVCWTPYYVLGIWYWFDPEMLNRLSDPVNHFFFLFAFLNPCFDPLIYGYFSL
Summary of the method: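 After filtration and PBS washes, bound radioactivity was counted by scintillation and IC50 derived. Identical conditions applied for non-human receptors.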

mouse GnRH receptor = target: T2, mouse GnRH receptor (Mus musculus, UniProt Q01776); assay: Radioligand binding, 125I-GnRH-A, 293 cells expressing mouse GnRH receptors
T2 construct: expressed in transfected cells; host or cells: 293 cells
T2 sequence (Q01776 1-327): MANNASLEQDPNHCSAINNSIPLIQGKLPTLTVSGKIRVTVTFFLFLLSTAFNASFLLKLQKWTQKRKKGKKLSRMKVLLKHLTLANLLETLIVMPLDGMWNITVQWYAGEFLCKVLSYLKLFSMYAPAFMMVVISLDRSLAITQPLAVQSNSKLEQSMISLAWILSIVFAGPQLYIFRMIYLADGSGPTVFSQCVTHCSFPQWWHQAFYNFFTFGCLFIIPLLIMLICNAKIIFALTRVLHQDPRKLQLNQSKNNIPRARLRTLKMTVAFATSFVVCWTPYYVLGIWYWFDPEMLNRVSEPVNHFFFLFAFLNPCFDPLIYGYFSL
Summary of the method: (§1)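 Bound label captured on 0.1% polyethyleneimine-treated GF/C filters, washed three times with PBS, counted. IC50 derived; identical set-up for every species.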

rat GnRH receptor = target: T3, rat GnRH receptor (Rattus norvegicus, UniProt P30969); assay: Radioligand binding, 125I-GnRH-A, rat pituitary membranes; parameters: membranes were prepared from rat pituitary; from tissue; host or cells: rat pituitary
T3 sequence (P30969 1-327): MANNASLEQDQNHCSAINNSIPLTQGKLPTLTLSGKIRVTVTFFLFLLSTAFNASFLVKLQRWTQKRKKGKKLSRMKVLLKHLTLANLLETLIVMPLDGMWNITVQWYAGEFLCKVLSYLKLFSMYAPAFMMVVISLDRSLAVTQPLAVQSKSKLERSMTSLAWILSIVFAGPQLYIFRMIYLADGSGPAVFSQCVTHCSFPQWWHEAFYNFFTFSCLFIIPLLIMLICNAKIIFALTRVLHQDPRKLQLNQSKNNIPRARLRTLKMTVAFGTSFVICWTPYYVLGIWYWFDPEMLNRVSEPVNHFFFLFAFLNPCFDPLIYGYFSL
Summary of the method: as §1

[1] = Pharmacokinetic studies / bioavailability in rats; format: in vivo, rat; settings: for Cmax / Tmax: po
[2] = means ± SE of at least three experiments performed in duplicate, read-out: Human IC50
[3] = means ± SE of at least three experiments performed in duplicate, read-out: Mouse IC50
[4] = means ± SE of at least three experiments performed in duplicate, read-out: Rat IC50
[5] = second value marked * (mostly in parentheses), asterisk not explained, read-out: hGnRH IC50, value marked *
[6] = male, rat, plasma, iv, 10 mg/kg, rat male
[7] = male, rat, plasma, 10 mg/kg, rat male, p.o. 10 mg/kg, vehicle per footnote
[8] = male, rat, plasma, 20 mg/kg, rat male, p.o. 20 mg/kg, vehicle per footnote (DMSO/cremophor/saline)
[9] = rat male, p.o. 20 mg/kg, vehicle per footnote (DMSO/cremophor/saline)
[10] = female, rat, plasma, 20 mg/kg, rat female, p.o. 20 mg/kg, 10 mg/ml solution in 10% DMSO 10% cremophor 80% saline
[11] = female, rat, plasma, rat female
[12] = male, rat, plasma, 20 mg/kg, castrated male rats, p.o. 20 mg/kg, 10 mg/ml solution in 10% DMSO 10% cremophor 80% saline
[13] = male, rat, plasma, 20 mg/kg, rat male, p.o. 20 mg/kg, 40 mg/ml in PEG400
[14] = plasma, ip, rat, i.p. 20 mg/kg, read-out: Bioavailability after i.p. dosing
[15] = rat female, p.o. 20 mg/kg, 10 mg/ml solution in 10% DMSO 10% cremophor 80% saline
[16] = female, rat, plasma, 10 mg/kg, rat female, p.o. 10 mg/kg, 5 mg/ml solution in 10% DMSO 10% cremophor 80% saline

| SMILES | IC50 (human GnRH receptor; [2]) | IC50 (mouse GnRH receptor; [3]) | IC50 (rat GnRH receptor; [4]) | IC50 (human GnRH receptor; read-out: hGnRH IC50) | IC50 (human GnRH receptor; [5]) | IC50 (mouse GnRH receptor; read-out: mGnRH IC50) | IC50 (rat GnRH receptor; read-out: rGnRH IC50) | half-life [1, 6] | Cmax [1, 8] | Tmax [1, 8] | Fp.o. [1, 9] | also measured |
| --- | --- | --- | --- | --- | --- | --- | --- | --- | --- | --- | --- | --- |
| CC(=O)N[C@H](Cc1ccc2ccccc2c1)C(=O)N[C@H](Cc1ccc(Cl)cc1)C(=O)N[C@H](Cc1cccnc1)C(=O)N[C@@H](CO)C(=O)N[C@@H](CCCCNC(=O)c1cccnc1)C(=O)N[C@H](CCCCNC(=O)c1cccnc1)C(=O)N[C@@H](CC(C)C)C(=O)N[C@@H](CCCCNC(C)C)C(=O)N1CCC[C@H]1C(=O)N[C@H](C)C(N)=O [Antide, reference compound] (Ac-[d2Nal][dPhe(4-Cl)][d3Pal]SK(Nicotinoyl)[dK](Nicotinoyl)L[Lys(iPr)]P[dA]-NH2) | 0.67 ± 0.09 nM | 0.25 ± 0.05 nM | 0.19 ± 0.04 nM | – | – | – | – | – | – | – | – | – |
| Cc1cc2c(cc1Cc1ccc(C(=O)NC[C@H]3CC[C@H](CNC(=N)N)CC3)o1)C(C)(C)CCC2(C)C [Compound 10] | 130 ± 24 nM | 1400 ± 440 nM | 390 ± 10 nM | 130 nM | 20 nM | 1400 nM | 390 nM | – | – | – | – | – |
| Cc1cc2c(cc1Cc1ccc(C(=O)NCC3CCCC(CNc4nccc(NCC5CCCO5)n4)C3)o1)C(C)(C)CCC2(C)C (stereo not drawn) [Compound 11] | 190 ± 40 nM | 50 ± 10 nM | 9 ± 0.3 nM | 190 nM | 80 nM | 50 nM | 9 nM | 180 min | – | – | – | Cmax [1, 7]: 150 nM; Tmax [1, 7]: 1.5 to 3.5 h; concentration at 4 h ([1]; rat, plasma, iv, four hours after i.v. injection, 10 mg/kg): 100 to 200 nM |
| Cc1cc2c(cc1Cc1ccc(C(=O)NC[C@H]3CC[C@H](C(=O)O)CC3)o1)C(C)(C)CCC2(C)C [Compound 12] | 230 ± 37 nM | 7130 ± 1350 nM | 3080 ± 630 nM | 230 nM | 210 nM | 7130 nM | 3080 nM | 36 min | – | – | – | – |
| Cc1cnc(CNC(=O)c2ccc(Cc3cc4c(cc3C)C(C)(C)CCC4(C)C)o2)cn1 [Compound 13] | 110 ± 20 nM | 120 ± 20 nM | 60 ± 8 nM | 110 nM | 40 nM | 120 nM | 60 nM | 90 min | – | – | – | – |
| COc1cccc(OC)c1NC(=O)c1ccc(Cc2cc3c(cc2C)C(C)(C)CCC3(C)C)o1 [Compound 20] | 8 ± 0.9 nM | – | – | 8 nM | – | 20 nM | 5 nM | 52 min | 200 nM | 1 h | – | – |
| Cc1cc2c(cc1Cc1ccc(C(=O)NCc3nc4ccccc4[nH]3)o1)C(C)(C)CCC2(C)C [Compound 48] | – | – | – | 50 nM | 40 nM | 10 nM | 6 nM | 66 min | 330 nM | 1.5 h | 4% (20 mg/kg)^1 | – |
| Cc1cc2c(cc1Cc1ccc(C(=O)NCc3cccc(CNc4nccc(NCC5CCCO5)n4)c3)o1)C(C)(C)CCC2(C)C (stereo not drawn) [Compound 70] | – | – | – | 50 nM | – | 6 nM | 6 nM | 58 min | – | – | – | – |
| COc1cc(OC)c(NC(=O)c2ccc(Cc3cc4c(cc3C)C(C)(C)CCC4(C)C)o2)c(OC)c1 [Compound 134] | – | – | – | 6 nM | – | 3 nM | 3 nM | 84 min | 610 nM | 1 h | 8% (20 mg/kg)^5 | Fp.o. ([1]; castrated male rats, p.o. 20 mg/kg, 10 mg/ml solution in 10% DMSO 10% cremophor 80% saline): 23% (20 mg/kg)^1; Cmax [1, 10]: 2310 nM; Tmax [1, 10]: 1 h; half-life [1, 11]: 102 min; half-life ([1]; male, rat, plasma, castrated male rats): 102 min; Cmax [1, 12]: 1980 nM; Tmax [1, 12]: 1.5 h; Cmax [1, 13]: 230 nM; bioavailability [1, 14]: 38%; Fp.o. [1, 15]: 24% (20 mg/kg)^1 |
| Cc1cc2c(cc1Cc1ccc(C(=O)NCc3cccc(CNc4ccnc(NC[C@@H]5CCCO5)n4)c3)o1)C(C)(C)CCC2(C)C [Compound 136] | – | – | – | – | – | 8.6 nM | 4.7 nM | 120 min | 240 nM | 2 h | 6% (20 mg/kg)^4 | Cmax [1, 10]: 240 nM; Tmax [1, 10]: 2.5 h; half-life [1, 11]: 192 min; Tmax [1, 13]: 4 h; Tmax ([1]; male, rat, plasma, 20 mg/kg, rat male, p.o. 20 mg/kg, in PG): 3.5 h; bioavailability ([1]; plasma, other: portal vein infusion, rat, portal vein infusion 20 mg/kg, read-out: Portal vein infusion: bioavailable): 36%; Fp.o. [1, 15]: 8% (20 mg/kg)^1 |
| COc1cc(OC)c(NC(=O)c2ccc(Cc3cc4c(cc3OC)C(C)(C)CCC4(C)C)o2)c(OC)c1 [Compound 169] | – | – | – | 12 nM | – | 5 nM | 7 nM | 90 min | 970 nM | 1 h | 27% (20 mg/kg)^1 | bioavailability [1, 14]: 70% |
| COc1cc(OC)c(NC(=O)c2ccc(Cc3cc4c(cc3C)C(C)(C)CCC4(C)C)o2)c(OC)c1C#N [Compound 177] | – | – | – | 7.4 nM | – | 7.3 nM | 5.7 nM | 132 min | – | – | 0 (20 mg/kg)^9% | bioavailability [1, 14]: 8% |
| COc1cc(OC)c(NC(=O)c2ccc(Cc3cc4c(cc3C)CCCC4(C)C)o2)c(OC)c1 [Compound 183] | – | – | – | 6.8 nM | – | 2.7 nM | 2.5 nM | 246 min | – | – | – | Cmax [1, 16]: 510 nM; Tmax [1, 16]: 1 h; half-life [1, 11]: 216 min; Cmax [1, 7]: 350 nM; Tmax [1, 7]: 1 h; Fp.o. ([1]; rat female, 5 mg/ml solution in 10% DMSO 10% cremophor 80% saline): 37% (10 mg/kg)^10; Fp.o. ([1]; rat male, vehicle per footnote): 29% (10 mg/kg)^10 |

Reference: US7101878B1 (Agouron Pharmaceuticals, Inc., priority 1998, dated 2006)
